Legend:
Cytochrome P450 2C19 = Cytochrome P450 2C19 (Homo sapiens, UniProt P33261); conditions: bti-tn-5b1-4; note: in other assays of this panel Not Active means under 50% inhibition at 10 µM
[1] = DRUGMATRIX: Calcium Channel Type L, Dihydropyridine radioligand binding (ligand: [3H] Nitrendipine); format: cell membranes, Rattus norvegicus, Wistar, Cerebral cortex, Membrane; conditions: Not Active = under 50% inhibition at 10 µM
Nitric oxide synthase 1 = Nitric oxide synthase 1 (Rattus norvegicus, UniProt P29476); format: tissue-based, Cerebellum; note: in other assays of this panel Not Active means under 50% inhibition at 10 µM
Nitric oxide synthase 1, sequence (P29476 whole entry): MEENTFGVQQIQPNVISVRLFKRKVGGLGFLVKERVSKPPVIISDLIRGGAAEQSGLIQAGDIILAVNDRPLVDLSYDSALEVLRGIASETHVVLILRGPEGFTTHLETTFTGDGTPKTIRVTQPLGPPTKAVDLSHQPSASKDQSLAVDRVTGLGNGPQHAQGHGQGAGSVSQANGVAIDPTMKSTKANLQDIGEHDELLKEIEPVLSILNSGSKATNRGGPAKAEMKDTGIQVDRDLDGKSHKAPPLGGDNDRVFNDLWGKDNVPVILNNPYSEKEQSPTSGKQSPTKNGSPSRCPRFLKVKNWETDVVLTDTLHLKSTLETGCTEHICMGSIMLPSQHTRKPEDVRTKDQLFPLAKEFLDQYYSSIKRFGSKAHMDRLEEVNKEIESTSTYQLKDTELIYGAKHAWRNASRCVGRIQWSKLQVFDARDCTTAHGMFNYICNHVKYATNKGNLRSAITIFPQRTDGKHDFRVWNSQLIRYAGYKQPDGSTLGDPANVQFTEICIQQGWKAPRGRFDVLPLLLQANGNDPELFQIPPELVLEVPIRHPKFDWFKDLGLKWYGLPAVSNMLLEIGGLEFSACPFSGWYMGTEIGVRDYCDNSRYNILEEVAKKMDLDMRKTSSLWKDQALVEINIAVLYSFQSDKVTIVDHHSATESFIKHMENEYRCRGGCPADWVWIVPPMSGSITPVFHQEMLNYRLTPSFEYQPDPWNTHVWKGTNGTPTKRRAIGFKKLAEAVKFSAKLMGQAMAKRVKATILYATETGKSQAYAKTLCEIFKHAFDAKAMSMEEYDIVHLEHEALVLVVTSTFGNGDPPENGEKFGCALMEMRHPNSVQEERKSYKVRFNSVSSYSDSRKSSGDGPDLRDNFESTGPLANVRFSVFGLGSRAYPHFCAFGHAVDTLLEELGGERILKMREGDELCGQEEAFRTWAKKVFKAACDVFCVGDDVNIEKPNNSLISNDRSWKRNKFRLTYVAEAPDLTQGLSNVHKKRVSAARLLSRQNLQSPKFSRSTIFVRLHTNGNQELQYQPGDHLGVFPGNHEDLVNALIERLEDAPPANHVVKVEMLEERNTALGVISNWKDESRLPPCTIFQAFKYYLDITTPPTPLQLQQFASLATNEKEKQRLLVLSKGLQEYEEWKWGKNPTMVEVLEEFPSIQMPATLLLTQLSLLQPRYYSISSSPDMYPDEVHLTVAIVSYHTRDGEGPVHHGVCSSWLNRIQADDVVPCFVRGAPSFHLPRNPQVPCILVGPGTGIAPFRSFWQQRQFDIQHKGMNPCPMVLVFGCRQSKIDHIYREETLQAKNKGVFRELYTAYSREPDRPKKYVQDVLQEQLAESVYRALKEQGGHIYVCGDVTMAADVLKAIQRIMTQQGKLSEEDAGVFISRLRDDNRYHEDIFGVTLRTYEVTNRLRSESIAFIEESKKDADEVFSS

Estrogen receptor = target: T1, Estrogen receptor (Homo sapiens, UniProt P03372); conditions: sf9; note: in other assays of this panel Not Active means under 50% inhibition at 10 µM
T1 sequence (P03372 whole entry): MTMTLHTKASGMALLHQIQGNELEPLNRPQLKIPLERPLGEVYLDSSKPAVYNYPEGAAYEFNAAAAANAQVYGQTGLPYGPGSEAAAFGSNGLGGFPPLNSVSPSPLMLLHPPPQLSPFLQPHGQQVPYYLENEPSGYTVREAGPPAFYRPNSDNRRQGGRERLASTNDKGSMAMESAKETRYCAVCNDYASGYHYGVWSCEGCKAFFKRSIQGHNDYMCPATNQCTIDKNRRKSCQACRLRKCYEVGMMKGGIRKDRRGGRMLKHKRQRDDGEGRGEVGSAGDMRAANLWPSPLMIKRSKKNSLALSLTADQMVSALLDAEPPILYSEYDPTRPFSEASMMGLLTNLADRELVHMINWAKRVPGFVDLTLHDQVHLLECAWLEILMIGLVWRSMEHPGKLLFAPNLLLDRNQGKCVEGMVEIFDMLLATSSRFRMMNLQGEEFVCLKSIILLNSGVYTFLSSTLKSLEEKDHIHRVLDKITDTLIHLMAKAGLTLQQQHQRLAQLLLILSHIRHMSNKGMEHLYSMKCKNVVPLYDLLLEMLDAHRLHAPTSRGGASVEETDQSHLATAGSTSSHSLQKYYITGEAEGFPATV

Substance-K receptor = target: T2, Substance-K receptor (Homo sapiens, UniProt P21452); format: cell membranes, CHO, Membrane; conditions: cho; note: in other assays of this panel Not Active means under 50% inhibition at 10 µM
T2 sequence (P21452 whole entry): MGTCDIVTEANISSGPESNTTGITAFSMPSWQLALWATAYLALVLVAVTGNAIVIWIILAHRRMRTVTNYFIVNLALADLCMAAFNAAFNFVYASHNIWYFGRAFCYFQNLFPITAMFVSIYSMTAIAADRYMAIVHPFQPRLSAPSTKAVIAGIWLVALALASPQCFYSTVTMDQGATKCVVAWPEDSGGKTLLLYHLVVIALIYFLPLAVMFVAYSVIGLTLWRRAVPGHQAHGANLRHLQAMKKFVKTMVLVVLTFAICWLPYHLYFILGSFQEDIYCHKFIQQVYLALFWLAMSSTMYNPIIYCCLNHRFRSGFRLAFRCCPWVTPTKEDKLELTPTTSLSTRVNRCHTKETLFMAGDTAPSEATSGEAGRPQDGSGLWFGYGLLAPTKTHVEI

[2] = DRUGMATRIX: Serotonin (5-Hydroxytryptamine) 5-HT3 radioligand binding (ligand: [3H] GR-65630); format: cell membranes, Membrane; conditions: hek293; Not Active = under 50% inhibition at 10 µM
[3] = target: Mitogen-activated protein kinase 3 (Homo sapiens, UniProt P27361); assay: DRUGMATRIX: Protein Serine/Threonine Kinase, ERK1 enzyme inhibition (substrate: Myelin Basic Protein); set-up: species or system Escherichia coli; conditions: Not Active = under 50% inhibition at 10 µM
Mitogen-activated protein kinase 3, sequence (P27361 whole entry): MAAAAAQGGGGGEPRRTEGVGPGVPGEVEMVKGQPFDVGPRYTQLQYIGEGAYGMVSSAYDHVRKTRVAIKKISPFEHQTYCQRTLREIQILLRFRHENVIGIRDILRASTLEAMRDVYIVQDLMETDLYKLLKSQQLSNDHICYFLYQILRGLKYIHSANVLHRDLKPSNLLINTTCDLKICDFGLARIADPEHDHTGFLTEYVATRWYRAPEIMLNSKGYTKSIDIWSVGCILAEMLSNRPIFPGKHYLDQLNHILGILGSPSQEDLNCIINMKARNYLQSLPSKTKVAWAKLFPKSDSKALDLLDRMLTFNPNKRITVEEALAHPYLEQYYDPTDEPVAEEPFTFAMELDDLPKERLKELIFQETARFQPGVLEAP

Cytochrome P450 2C19, sequence (P33261 whole entry): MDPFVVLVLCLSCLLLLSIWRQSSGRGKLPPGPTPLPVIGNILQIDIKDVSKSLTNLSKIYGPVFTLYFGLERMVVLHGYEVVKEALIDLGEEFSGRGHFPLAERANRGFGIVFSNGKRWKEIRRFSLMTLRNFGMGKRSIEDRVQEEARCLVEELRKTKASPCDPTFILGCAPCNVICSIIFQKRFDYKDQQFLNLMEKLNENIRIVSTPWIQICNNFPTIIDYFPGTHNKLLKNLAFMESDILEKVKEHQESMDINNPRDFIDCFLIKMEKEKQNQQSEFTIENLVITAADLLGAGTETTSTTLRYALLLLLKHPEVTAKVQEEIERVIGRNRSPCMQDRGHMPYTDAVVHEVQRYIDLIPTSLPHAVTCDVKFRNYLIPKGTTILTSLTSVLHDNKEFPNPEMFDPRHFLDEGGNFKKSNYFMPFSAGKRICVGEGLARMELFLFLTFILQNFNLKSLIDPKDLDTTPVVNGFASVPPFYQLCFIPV

CCC(=O)O[C@H]1[C@H](O[C@@H]2[C@@H](C)[C@H](O[C@H]3C[C@@](C)(OC)[C@@H](O)[C@H](C)O3)[C@@H](C)C(=O)O[C@H](CC)[C@@](C)(O)[C@H](O)[C@@H](C)C(=O)[C@H](C)C[C@@]2(C)O)O[C@H](C)C[C@@H]1N(C)C [ERYTHROMYCIN PROPIONATE]
Not Active: IC50 (Cytochrome P450 2C19) | Ki (Cytochrome P450 2C19) | IC50 [1] | Ki [1] | IC50 (Nitric oxide synthase 1) | IC50 (Estrogen receptor) | IC50 (Substance-K receptor) | IC50 [2] | Ki [2] | IC50 [3]

C=C(CC)C(=O)c1ccc(OCC(=O)O)c(Cl)c1Cl [ETHACRYNIC ACID]
Not Active: IC50 (Cytochrome P450 2C19) | Ki (Cytochrome P450 2C19) | IC50 [1] | Ki [1] | IC50 (Nitric oxide synthase 1) | IC50 (Estrogen receptor) | IC50 (Substance-K receptor) | IC50 [2] | Ki [2] | IC50 [3]

OCCO [ETHYLENE GLYCOL]
Not Active: IC50 (Cytochrome P450 2C19) | Ki (Cytochrome P450 2C19) | IC50 [1] | Ki [1] | IC50 (Nitric oxide synthase 1) | IC50 (Estrogen receptor) | IC50 (Substance-K receptor) | IC50 [2] | Ki [2] | IC50 [3]

CC(=O)OCC(CCn1cnc2cnc(N)nc21)COC(C)=O [FAMCICLOVIR]
Not Active: IC50 (Cytochrome P450 2C19) | Ki (Cytochrome P450 2C19) | IC50 [1] | Ki [1] | IC50 (Nitric oxide synthase 1) | IC50 (Estrogen receptor) | IC50 (Substance-K receptor) | IC50 [2] | Ki [2] | IC50 [3]

CC(C(=O)O)c1ccc(-c2ccccc2)c(F)c1 (stereo not given) [FLURBIPROFEN]
Not Active: IC50 (Cytochrome P450 2C19) | Ki (Cytochrome P450 2C19) | IC50 [1] | Ki [1] | IC50 (Nitric oxide synthase 1) | IC50 (Estrogen receptor) | IC50 (Substance-K receptor) | IC50 [2] | Ki [2] | IC50 [3]

NC[C@@H]1O[C@H](O[C@H]2[C@@H](O)[C@H](O[C@@H]3[C@@H](O)[C@H](N)C[C@H](N)[C@H]3O[C@H]3O[C@H](CN)[C@@H](O)[C@H](O)[C@H]3N)O[C@@H]2CO)[C@H](N)[C@@H](O)[C@@H]1O [FRAMYCETIN]
Not Active: IC50 (Cytochrome P450 2C19) | Ki (Cytochrome P450 2C19) | IC50 [1] | Ki [1] | IC50 (Nitric oxide synthase 1) | IC50 (Estrogen receptor) | IC50 (Substance-K receptor) | IC50 [2] | Ki [2] | IC50 [3]

C[C@H]([C@](O)(Cn1cncn1)c1ccc(F)cc1F)S(C)(=O)=O [GENACONAZOLE]
Not Active: IC50 (Cytochrome P450 2C19) | Ki (Cytochrome P450 2C19) | IC50 [1] | Ki [1] | IC50 (Nitric oxide synthase 1) | IC50 (Estrogen receptor) | IC50 (Substance-K receptor) | IC50 [2] | Ki [2] | IC50 [3]

Cc1c(F)c(N2CCNC(C)C2)cc2c1c(=O)c(C(=O)O)cn2C1CC1 (stereo not given) [GREPAFLOXACIN]
Not Active: IC50 (Cytochrome P450 2C19) | Ki (Cytochrome P450 2C19) | IC50 [1] | Ki [1] | IC50 (Nitric oxide synthase 1) | IC50 (Estrogen receptor) | IC50 (Substance-K receptor) | IC50 [2] | Ki [2] | IC50 [3]

Source: ChEMBL document CHEMBL1909046, “DrugMatrix in vitro pharmacology data”
